From article PMC8233208 (The Journal of Biological Chemistry, 2021)

System: ZIKV (MR766)
Experiment: ZIKV total RNA replication by qRT-PCR in infected A549 cells
Type: cell-based, ZIKV African-lineage MR766 strain
Settings: 10 μM, RNA replication and NS5 assays

destruxin A [Compound 12]
antiviral (anti-ZIKV) activity, comparison among tested compounds: more potent activities
